# “And” between values parts separate entries of the source, which are not always exact repeats. Equal entries are not always repeated.
# What was measured:
# [1] = test system: λ-carrageenan induced neutrophil mediated inflammation of the footpad; experiment: λ-carrageenan-induced footpad inflammation (footpad swelling); type: in vivo, BALB/c mice; details: for Footpad Thickness (+/− SE): oxidised peptide
# Procedure: Experimental groups of 8-10 female BALB/c mice, 8-10 weeks of age, were housed in temperature controlled rooms and given food and water ad libitum. Observations and measurements were made by an investigator blinded to the experimental group. λ-Carrageenan injection. After measuring the baseline thickness of the hind footpads with a spring-loaded engineer's micrometer, mice were injected subcutaneously in both hind paws with 340 μg of λ-carrageenan in 40 μl. 6 h., 24 h., and 48 h. after the injection of λ-carrageenan, footpads were re-measured and swelling calculated by subtracting the baseline from the experimental measurements. For each mouse, increases in right and left footpad thickness were averaged. Thymosin peptides were injected as previously described [reference 8]: (i) intraperitoneally with 100 μl of 3.50×10^−5 M peptide solution, 30 minutes before footpad injection; (ii) intradermally into the footpad with 40 μl of 8.75×10^−5 M peptide solution and λ-carrageenan at time 0, and (iii) intraperitoneally with 100 μl of 3.50×10^−5 M peptide solution, 6 h. after footpad injection. For each group, the mean increase in footpad thickness was calculated, and compared to other groups using a one-tailed Student's t-test. The experiment was repeated four times. Statistics. Groups were compared for differences in the meaning using a one-tailed Student's t test; p<0.05 was considered statistically significant.
# [2] = test system: TPA-induced irritant contact dermatitis of ear skin; experiment: TPA irritant contact dermatitis (ICD) ear swelling assay; type: in vivo, BALB/c and FVB mice; details: for ear swelling: 6 h, unit not given; for TPA Ear Thickness (+/− SE): increase over baseline
# Procedure: Experimental groups of 8-10 female BALB/c and FVB mice, 8-10 weeks of age, were housed in temperature controlled rooms and given food and water ad libitum. Observations and measurements were made by an investigator blinded to the experimental group.
# After measuring the baseline ear thickness, naïve mice were injected intraperitoneally (IP) with either 100 μl of PBS, or 100 μl of 3.50×10^−5 M peptide solution (oxidized mTβ4 (“mTβ4-so”), or oxidized mLTβ4 (“mLTβ4-so”) [n=10 per group]). 30 minutes later, mice were injected intradermally with 40 μl of either PBS or 8.75×10^−5 M solution of the appropriate peptide in both ears. One minute later, 40 nmol TPA (in 10 μl acetone) was applied to the anterior side of each ear. 6 h. and 24 h. after the topical application of TPA, the ears were re-measured, and the increases in ear thickness between baseline and 6 h. and between baseline and 24 h. calculated. For each mouse, increases in right and left ear thickness were averaged.
# Statistics. Groups were compared for differences in the meaning using a one-tailed Student's t test; p<0.05 was considered statistically significant.
# [3] = test system: DNFB-induced allergic contact dermatitis of ear skin; experiment: DNFB allergic contact dermatitis (ACD) ear swelling assay; type: in vivo, FVB mice; details: for ear thickness: unit not given
# Procedure: Experimental groups of 8-10 female FVB mice, 8-10 weeks of age, were housed in temperature controlled rooms and given food and water ad libitum. Observations and measurements were made by an investigator blinded to the experimental group. Mice were sensitized on day 0 by epicutaneous application to razor-shaved abdominal skin of 25 μl of 0.5% DNFB in a mixture of acetone:olive oil (4:1). Before the challenge with DNFB, mice were injected (i) intraperitoneally with 100 μl of 3.50×10^−5 M thymosin peptide solution (30 minutes before DNFB) and (ii) intradermally with 40 μl of 8.75×10^−5 M peptide solution in both ears (1 min prior to DNFB challenge). On day 5, after measuring baseline ear thickness with an engineer's micrometer, mice were challenged by applying 10 μl of 0.2% DNFB in acetone:olive oil to each side of each ear. Ears were re-measured 6 h., 24 h., and 48 h. after challenge, and data expressed as the response above baseline (i.e., ear thickness 24 h. after challenge minus ear thickness immediately prior to challenge)±1 standard error of the mean (S.E.). For each mouse, increases in right and left ear thickness were averaged. The experiment was repeated twice. Statistics. Groups were compared for differences in the meaning using a one-tailed Student's t test; p<0.05 was considered statistically significant.
# [4] = test system: human umbilical vein endothelial cells (HUVEC); experiment: Endothelial scratch wound assay; type: cell-based; details: for % Closure (+/− SE %): 2.0×10^-7 M peptide, ECGS 200 μg
# Excerpt: The endothelial “scratch wound assay” was utilised to test the effects of mUTβ4 and mLTβ4 on the migration of endothelial cells in vitro, as described in […] et al. (1997) Thymosin beta 4 accelerates wound healing. J Invest Dermatol. 1999 September; 113(3):364-8 and Young et al., (1999) Thymosin b 4 sulfoxide is an anti-inflammatory agent generated by monocytes in the presence of glucocorticoids. Nature Medicine. 5:1424-1427. HUVECs were obtained from the Endothelial Cell Culture Core Laboratory of the Yale Skin Diseases Research Core Center (Dr. M. Kluger). Passage 3 was used, and plated at a density of 9.5×10^4 cells per well. Cells were grown to 90% confluence in 24 well plates (Corning/Costar), in M-199 media supplemented with 20% FBS, antibiotics, and endothelial cell growth supplement (ECGS). A scratch was made along the diameter of each well with a sterile blue 1 ml pipette tip (Falcon). Cells were then rinsed in MEM buffer. Thymosin peptide was added to the cells in media lacking ECGS but containing 10 mM thymidine to inhibit cell proliferation. In the experimental groups, HUVECs were given 2.0×10^-7 M peptide solution of mUTb4, or in LTb4. Control groups consisted of saline (negative control) and 200 mg of ECGS (positive control). The plates were incubated at 37° C., fixed in 2% paraformaldehyde, and stained with crystal violet at time points 9 h. and 24 h. The scratch width was measured using a microscope with a 4× objective lens connected to a digital camera and then analyzed using Scion Image 1.62 software. The percent closure of the 9 h. and 24 h. measurements was calculated by dividing by the original wound width at time zero in square pixels. For each group, the mean percent closure was calculated, based on 4 images per well, 4 wells per group.
substance,measurement,setting,value
N-MSDKPDMAEIEKFDKSKLKKTETQEINPL-PSIETIEQEKQAGES-C (SEQ ID NO:2) [mUTβ4],suppression of footpad inflammation relative to PBS,[1]; 6 h,29%
same,suppression of footpad inflammation relative to PBS,[1]; 24 h,45%
same,suppression of footpad inflammation relative to PBS,[1]; 48 h,38%
same,Footpad Thickness (+/− SE),"[1]; Methionated Thymosin Experiment (B), forty-eight hours after λ-carrageenan, listed as mTβ4-so",0.51 ± 0.02 mm and 0.55 ± 0.03 mm
same,Footpad Thickness (+/− SE),"[1]; Methionated Thymosin Experiment (B), six hours after λ-carrageenan, listed as mTβ4-so",0.36 ± 0.06 mm and 0.51 ± 0.05 mm
same,Footpad Thickness (+/− SE),"[1]; Methionated Thymosin Experiment (B), twenty-four hours after λ-carrageenan, listed as mTβ4-so",0.38 ± 0.01 mm and 0.28 ± 0.04 mm
same,ear swelling,[2],24.10±1.83
same,suppression of inflammation relative to PBS-treated controls,[2]; 6 h post-application of TPA,21%
same,suppression of inflammation relative to PBS-treated controls,[2]; 24 h post-application of TPA,13%
same,TPA Ear Thickness (+/− SE),"[2]; six hours after TPA, listed as mTβ4",24.10 ± 1.83 mm and 18.00 ± 1.58 mm
same,TPA Ear Thickness (+/− SE),"[2]; twenty-four hours after TPA, listed as mTβ4-so",19.00 ± 1.83 mm and 16.75 ± 1.79 mm
same,suppression of ACD ear swelling response relative to PBS,[3]; 72 h,29%
same,DNFB Ear Thickness (+/− SE),"[3]; Methionated Thymosin Experiment, forty-eight hours after challenge, listed as mTβ4-so",18.39 ± 1.67 mm and 15.11 ± 0.37 mm
same,DNFB Ear Thickness (+/− SE),"[3]; Methionated Thymosin Experiment, six hours after challenge, listed as mTβ4-so",5.18 ± 0.78 mm and 4.39 ± 1.08 mm
same,DNFB Ear Thickness (+/− SE),"[3]; Methionated Thymosin Experiment, twenty-four hours after challenge, listed as mTβ4-so",20.25 ± 1.54 mm and 16.75 ± 0.48 mm
same,% Closure (+/− SE %),"[4]; nine hours, listed as mTβ4",24% and 24.0 ± 1.1%
same,% Closure (+/− SE %),"[4]; twenty-four hours, listed as mTβ4",21% and 21.0 ± 1.5%
same,% Closure (+/− SE %),"[4]; twenty-four hours, listed as mTβ4-so",21.0±1.5%
"N-MLLPATMSDKPDMAEIEIFDKSKILITE-TQEKNPLPSKETIEQEKQAGES-C (SEQ ID NO:9) (MLLPATMSDKPDMAEIEKFDKSKLKKTETQEKNPLPSKETIEQEKQAGES; listed as Homo sapiens) [mLTβ4, N-terminal methionated lymphoid thymosin-β4, chemically synthesised]",suppression of footpad inflammation relative to PBS,[1]; 6 h,50%
same,footpad swelling compared with mice receiving PBS or mUTβ4 (FIG. 2B),[1]; 6 h and 24 h,significantly reduced footpad swelling
same,suppression of footpad inflammation relative to PBS,[1]; 24 h,59%
same,suppression of footpad inflammation relative to PBS,[1]; 48 h,34%
same,ear swelling,[2],18.00±1.58
same,suppression of inflammation relative to PBS-treated controls,[2]; 6 h post-application of TPA,41%
same,suppression of inflammation relative to PBS-treated controls,[2]; 24 h post-application of TPA,24%
same,suppression of TPA-induced ear swelling (FIG. 3),"[2]; vs PBS at 6 h and 24 h, vs mUTβ4 at 6 h",significantly more than PBS
same,suppression of ACD ear swelling response relative to PBS,[3]; 6 h,37%
same,suppression of ACD ear swelling response relative to PBS,[3]; 24 h,27%
same,ear swelling response relative to mice that received PBS or mUTβ4 (FIG. 4B),[3]; 24 h and 72 h,significant reduction in ear swelling response
same,suppression of ACD ear swelling response relative to PBS,[3]; 72 h,42%
same,% Closure (+/− SE %),[4]; nine hours,27.2 ± 1.6%
same,% Closure (+/− SE %),"[4]; nine hours, listed as mLβ",27.2%
same,more closure than mTβ4-so,[4]; twenty four hours,15.3%
same,% Closure (+/− SE %),[4]; twenty-four hours,37.3 ± 4.4%
same,% Closure (+/− SE %),"[4]; twenty-four hours, listed as mLβ",37.3%
same,effect on migration of HUVEC to close an artificial wound (FIG. 5),"[4]; vs PBS at 9 h and 24 h, vs mUTβ4 at 24 h",significantly greater than PBS
"N-LLPATMSDKPDMAEIEKFDKSKLKKTE-TQEKNPLPSKETIEQEKQAGES-C (SEQ ID NO:8) (LLPATMSDKPDMAEIEKFDKSKLKKTETQEKNPLPSKETIEQEKQAGES; listed as Homo sapiens) [LTβ4, lymphoid thymosin-β4 polypeptide, un-methionated form, chemically synthesised]",suppression of footpad inflammation relative to PBS,[1]; 6 h,21%
same,footpad swelling compared with mice receiving PBS or UTβ4 (FIG. 2A),[1]; 24 h,significantly reduced footpad swelling
same,suppression of footpad inflammation relative to PBS,[1]; 24 h,58%
same,footpad thickness,"[1]; 24 h, unit not given",0.22±0.03
same,suppression of footpad inflammation relative to PBS,[1]; 48 h,42%
same,Footpad Thickness (+/− SE),"[1]; Un-Methionated Thymosin Experiment (A), forty-eight hours after λ-carrageenan",0.34 ± 0.04 mm
same,Footpad Thickness (+/− SE),"[1]; Un-Methionated Thymosin Experiment (A), six hours after λ-carrageenan, increase over baseline",0.47 ± 0.04 mm
same,Footpad Thickness (+/− SE),"[1]; Un-Methionated Thymosin Experiment (A), twenty-four hours after λ-carrageenan",0.22 ± 0.03 mm
same,suppression of ACD ear swelling response relative to PBS,[3]; 6 h,17%
same,ear swelling response compared to mice receiving PBS or UTβ4 (FIG. 4A),"[3]; 6 h, 24 h and 72 h after challenge",significant reduction in ear swelling response
same,suppression of ACD ear swelling response relative to PBS,[3]; 24 h,21%
same,suppression of ACD ear swelling response relative to PBS,[3]; 72 h,24%
same,DNFB Ear Thickness (+/− SE),"[3]; Un-Methionated Thymosin Experiment, forty-eight hours after challenge",15.45 ± 0.91 .01 mm
same,DNFB Ear Thickness (+/− SE),"[3]; Un-Methionated Thymosin Experiment, six hours after challenge",7.83 ± 0.61 .01 mm
same,DNFB Ear Thickness (+/− SE),"[3]; Un-Methionated Thymosin Experiment, twenty-four hours after challenge",18.98 ± 0.74 .01 mm
same,thinner ears than uTβ4-so treated mice,[3]; seventy-two hours,22%
same,ear thickness,[3]; seventy-two hours,15.45±0.91
same,thinner ears than uTβ4-so treated mice,[3]; six hours,21%
same,ear thickness,[3]; six hours,7.83±0.61
same,thinner ears than uTβ4-so treated mice,[3]; twenty-four hours,16%
same,ear thickness,[3]; twenty-four hours,18.98±0.74

# From patent publication US20090317457A1, “ANTI-INFLAMMATORY AND WOUND HEALING EFFECTS OF LYMPHOID THYMOSIN B-4” (Yale University, priority 2002, published 2009)
